Results published in the NIST ThermoML archive (doi:10.1021/je060086x).
± gives the expanded uncertainty stated by the source.

Experiments:
[1] = excess molar enthalpy (molar enthalpy of mixing); xn = mol fraction of the nth substance listed; conditions: 298.15 K, 101 kPa, Liquid
[2] = 298.15 K; 101.33 kPa; Liquid
[3] = refractive index (Na D-line) (dimensionless); conditions: 298.15 K; 101.33 kPa; Liquid; Standard Abbe refractometry

In the case of `CC(O)CO` (stereo not given) [1,2-propanediol] + CCCCCO, the excess molar enthalpy ([1]; x1 = 0.0914) is reported as 0.0774 ± 0.00335 kcal/mol, the excess molar enthalpy ([1]; x1 = 0.1843) is reported as 0.124 ± 0.00478 kcal/mol and the excess molar enthalpy ([1]; x1 = 0.2821) is reported as 0.15 ± 0.00574 kcal/mol. The excess molar enthalpy ([1]; x1 = 0.3755) was 0.162 ± 0.00621 kcal/mol, the excess molar enthalpy ([1]; x1 = 0.4761) was 0.163 ± 0.00621 kcal/mol and the excess molar enthalpy ([1]; x1 = 0.577) was 0.153 ± 0.00598 kcal/mol. For the same molecule, the excess molar enthalpy ([1]; x1 = 0.6082) was 0.146 ± 0.00574 kcal/mol, the excess molar enthalpy ([1]; x1 = 0.7027) was 0.126 ± 0.00502 kcal/mol and the excess molar enthalpy ([1]; x1 = 0.802) was 0.0963 ± 0.00382 kcal/mol. For the same molecule, the excess molar enthalpy ([1]; x1 = 0.9014) was 0.0549 ± 0.00239 kcal/mol.

`CCO` [ethanol] showed a mass density [2] of 785.15 ± 0.25 kg/m3 and a refractive index [3] of 1.3595 ± 0.0005.

Molecule `CC(O)CO` (stereo not given) [1,2-propanediol] + CCCCCCO has an excess molar enthalpy ([1]; x1 = 0.0905) of 0.0833 ± 0.00359 kcal/mol, an excess molar enthalpy ([1]; x1 = 0.1929) of 0.138 ± 0.00526 kcal/mol and an excess molar enthalpy ([1]; x1 = 0.2872) of 0.165 ± 0.00621 kcal/mol. It also gave an excess molar enthalpy ([1]; x1 = 0.3828) of 0.178 ± 0.00669 kcal/mol, an excess molar enthalpy ([1]; x1 = 0.4778) of 0.181 ± 0.00693 kcal/mol and an excess molar enthalpy ([1]; x1 = 0.5711) of 0.173 ± 0.00645 kcal/mol. The excess molar enthalpy ([1]; x1 = 0.6718) was 0.157 ± 0.00598 kcal/mol, the excess molar enthalpy ([1]; x1 = 0.7021) was 0.146 ± 0.00574 kcal/mol and the excess molar enthalpy ([1]; x1 = 0.7996) was 0.116 ± 0.00454 kcal/mol. It also gave an excess molar enthalpy ([1]; x1 = 0.904) of 0.0673 ± 0.00287 kcal/mol.

`CC(O)CO` (stereo not given) [1,2-propanediol] + CO showed an excess molar enthalpy ([1]; x1 = 0.0787) of -0.00605 ± 0.000932 kcal/mol, an excess molar enthalpy ([1]; x1 = 0.1565) of -0.01 ± 0.00105 kcal/mol and an excess molar enthalpy ([1]; x1 = 0.2336) of -0.0127 ± 0.00112 kcal/mol. For the same molecule, the excess molar enthalpy ([1]; x1 = 0.3099) was -0.0143 ± 0.0012 kcal/mol, the excess molar enthalpy ([1]; x1 = 0.3885) was -0.0151 ± 0.00122 kcal/mol and the excess molar enthalpy ([1]; x1 = 0.3952) was -0.014 ± 0.00117 kcal/mol. It also gave an excess molar enthalpy ([1]; x1 = 0.4998) of -0.0136 ± 0.00117 kcal/mol, an excess molar enthalpy ([1]; x1 = 0.6004) of -0.0124 ± 0.00112 kcal/mol and an excess molar enthalpy ([1]; x1 = 0.7015) of -0.0102 ± 0.00105 kcal/mol. The excess molar enthalpy ([1]; x1 = 0.8026) was -0.00743 ± 0.00098 kcal/mol and the excess molar enthalpy ([1]; x1 = 0.9) was -0.00392 ± 0.00086 kcal/mol.

`CC(O)CO` (stereo not given) [1,2-propanediol] + CCCCO showed an excess molar enthalpy ([1]; x1 = 0.1007) of 0.0737 ± 0.00311 kcal/mol, an excess molar enthalpy ([1]; x1 = 0.1971) of 0.114 ± 0.00454 kcal/mol and an excess molar enthalpy ([1]; x1 = 0.2945) of 0.135 ± 0.00526 kcal/mol. For the same molecule, the excess molar enthalpy ([1]; x1 = 0.3853) was 0.143 ± 0.0055 kcal/mol, the excess molar enthalpy ([1]; x1 = 0.4758) was 0.142 ± 0.0055 kcal/mol and the excess molar enthalpy ([1]; x1 = 0.5644) was 0.133 ± 0.00526 kcal/mol. For the same molecule, the excess molar enthalpy ([1]; x1 = 0.6047) was 0.124 ± 0.00478 kcal/mol, the excess molar enthalpy ([1]; x1 = 0.7062) was 0.104 ± 0.00406 kcal/mol and the excess molar enthalpy ([1]; x1 = 0.8047) was 0.0773 ± 0.00335 kcal/mol. The excess molar enthalpy ([1]; x1 = 0.9026) was 0.0429 ± 0.00208 kcal/mol.

In the case of `CCCO` [propan-1-ol], the mass density [2] is reported as 799.51 ± 0.24 kg/m3 and the refractive index [3] is reported as 1.3833 ± 0.0005.

Work on `CC(O)CO` (stereo not given) [1,2-propanediol] + CCCO yielded an excess molar enthalpy ([1]; x1 = 0.1008) of 0.0544 ± 0.00239 kcal/mol, an excess molar enthalpy ([1]; x1 = 0.201) of 0.087 ± 0.00359 kcal/mol and an excess molar enthalpy ([1]; x1 = 0.3036) of 0.105 ± 0.0043 kcal/mol. It also gave an excess molar enthalpy ([1]; x1 = 0.4025) of 0.111 ± 0.0043 kcal/mol, an excess molar enthalpy ([1]; x1 = 0.5001) of 0.107 ± 0.0043 kcal/mol and an excess molar enthalpy ([1]; x1 = 0.5049) of 0.109 ± 0.0043 kcal/mol. The excess molar enthalpy ([1]; x1 = 0.6007) was 0.0973 ± 0.00406 kcal/mol, the excess molar enthalpy ([1]; x1 = 0.7015) was 0.0808 ± 0.00335 kcal/mol and the excess molar enthalpy ([1]; x1 = 0.8011) was 0.0589 ± 0.00263 kcal/mol. The excess molar enthalpy ([1]; x1 = 0.9009) was 0.0316 ± 0.00172 kcal/mol.

`CC(O)CO` (stereo not given) [1,2-propanediol] gave a mass density [2] of 1032.61 ± 0.31 kg/m3 and a refractive index [3] of 1.4323 ± 0.0005.

`CCCCCCO` [hexan-1-ol] showed a mass density [2] of 815.2 ± 1.9 kg/m3 and a refractive index [3] of 1.4166 ± 0.0006.

With `CCCCCO` [pentan-1-ol] the mass density [2] was 810.88 ± 0.94 kg/m3 and the refractive index [3] was 1.4089 ± 0.0005.

Molecule `CO` [methanol] has a mass density [2] of 786.5 ± 0.51 kg/m3 and a refractive index [3] of 1.327 ± 0.0005.

`CC(O)CO` (stereo not given) [1,2-propanediol] + CCO showed an excess molar enthalpy ([1]; x1 = 0.0997) of 0.0215 ± 0.00141 kcal/mol, an excess molar enthalpy ([1]; x1 = 0.1948) of 0.0343 ± 0.00182 kcal/mol and an excess molar enthalpy ([1]; x1 = 0.2875) of 0.042 ± 0.00206 kcal/mol. It also gave an excess molar enthalpy ([1]; x1 = 0.381) of 0.0453 ± 0.00215 kcal/mol, an excess molar enthalpy ([1]; x1 = 0.4756) of 0.0451 ± 0.00215 kcal/mol and an excess molar enthalpy ([1]; x1 = 0.4952) of 0.0474 ± 0.00222 kcal/mol. The excess molar enthalpy ([1]; x1 = 0.5972) was 0.0427 ± 0.00208 kcal/mol, the excess molar enthalpy ([1]; x1 = 0.6991) was 0.0353 ± 0.00184 kcal/mol and the excess molar enthalpy ([1]; x1 = 0.8005) was 0.0253 ± 0.00153 kcal/mol. For the same molecule, the excess molar enthalpy ([1]; x1 = 0.9004) was 0.0136 ± 0.00117 kcal/mol.

Work on `CCCCO` [butan-1-ol] yielded a mass density [2] of 805.75 ± 0.23 kg/m3 and a refractive index [3] of 1.3974 ± 0.0005.
